Measurements as given in the supplement of paper PMC4862054.
“And” between values parts separate entries of the source, which are not always exact repeats. Equal entries are not always repeated.

How the values were obtained:
Conditions in all cases: incubation time: 72 h
[1] = system: BT-474; assay: normalised viability (% of control), CellTiter-Blue; higher = more viable cells (about 100 = DMSO control)
Method in brief: (§1)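 Vehicle (100) and a positive kill control (0) anchored the normalisation of each plate, and Z'-factor was used for quality control. Breast cancer cell lines in 20 µl suspension were incubated 72 h over compound in 5 µl medium in 384-well plates, followed by CellTiter-Blue at 560/590 nm. The value is normalised viability at a single listed concentration of the series.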

[2] = system: BT-549; assay: as above
Method in brief: as §1

[3] = system: CAL-120; assay: as above
Method in brief: as §1

[4] = system: CAL-51; assay: as above
Method in brief: as §1

[5] = system: HCC1143; assay: as above
Method in brief: as §1

[6] = system: HCC1599; assay: as above
Method in brief: as §1

[7] = system: HCC1937; assay: as above
Method in brief: as §1

[8] = system: MDA-MB-231; assay: as above
Method in brief: as §1

[9] = system: MDA-MB-453; assay: as above
Method in brief: as §1

[10] = system: MDA-MB-468; assay: as above
Method in brief: as §1

[11] = system: MFM-223; assay: as above
Method in brief: as §1

[12] = system: SK-BR-3; assay: as above
Method in brief: as §1

[13] = system: BT-474; assay: drug sensitivity score (DSS), CellTiter-Blue viability (DSS (AUC-based score)); higher = stronger viability inhibition; extreme values may be limits of the assay
Experimental: (§2)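 DSRT with the CellTiter-Blue (resazurin reduction) viability readout, fluorescence 560/590 nm, 72 h incubation. Plates were normalised to DMSO and benzethonium chloride controls. DSS is computed from the area under the fitted dose-response curve (5 or 9 concentrations).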

[14] = system: BT-549; assay: as above
Experimental: as §2

[15] = system: CAL-51; assay: as above
Experimental: as §2

[16] = system: DU-4475; assay: as above
Experimental: as §2

[17] = system: HCC1143; assay: as above
Experimental: as §2

[18] = system: HCC1599; assay: as above
Experimental: as §2

[19] = system: HDQ-P1; assay: as above
Experimental: as §2

[20] = system: Hs578T; assay: as above
Experimental: as §2

[21] = system: MDA-MB-231; assay: as above
Experimental: as §2

[22] = system: MDA-MB-453; assay: as above
Experimental: as §2

[23] = system: MDA-MB-468; assay: as above
Experimental: as §2

[24] = system: SK-BR-3; assay: as above
Experimental: as §2

Cc1c(N)nc([C@H](CC(N)=O)NC[C@H](N)C(N)=O)nc1C(=O)N[C@H](C(=O)N[C@H](C)[C@@H](O)[C@H](C)C(=O)N[C@H](C(=O)NCCc1nc(-c2nc(C(=O)NCCC[S+](C)C)cs2)cs1)[C@@H](C)O)[C@@H](OC1OC(CO)C(O)C(O)C1OC1OC(CO)C(O)C(OC(N)=O)C1O)c1cnc[nH]1 (stereo partly drawn) [Bleomycin]
normalised viability [%]
Conditions | 3 nM | 10 nM | 30 nM | 100 nM | 1000 nM | 10000 nM
[1] | – | 102 | – | – | 97.9 | 98
[2] | – | 87.5 | – | – | 57.1 | 62.4
[3] | – | 94.4 | – | – | 78.5 | 67.7
[4] | 97.6 | – | 96 | 96.3 | – | –
[5] | – | 74.6 | – | – | 64.2 | 49.4
[6] | – | 134 | – | – | 112 | 118
[7] | – | 92.2 | – | – | 54.7 | 28.2
[8] | – | 88.7 | – | – | 70 | 60.3
[9] | 103 | – | 106 | 100 | – | –
[10] | – | 94.6 | – | – | 86.6 | 72.7
[11] | – | 106 | – | – | 107 | 100
[12] | – | 89.6 | – | – | 99.1 | 89.5

Conditions | drug sensitivity score
[13] | 0
[14] | 13.6
[15] | 0.892
[16] | 0
[17] | 9.95
[18] | 0
[19] | 0
[20] | 11.3
[21] | 6.41
[22] | 0
[23] | 0
[24] | 0

Cc1cc2c(F)c(Oc3ncnn4cc(OC[C@@H](C)O)c(C)c34)ccc2[nH]1 [Brivanib]
normalised viability [%]
Conditions | 0.3 nM | 1 nM | 3 nM | 10 nM | 100 nM | 1000 nM
[1] | – | 112 | – | – | 117 | 94.5
[2] | – | 107 | – | – | 90.6 | 109
[3] | – | 89.3 | – | – | 82.5 | 93.2
[4] | 96.7 | – | 96.8 | 95.7 | – | –
[5] | – | 85.2 | – | – | 83.3 | 84.3
[6] | – | 87.1 | – | – | 100 | 116
[7] | – | 87.8 | – | – | 104 | 97.6
[8] | – | 113 | – | – | 89.2 | 99.2
[9] | 99.6 | – | 110 | 101 | – | –
[10] | – | 93.7 | – | – | 111 | 112
[11] | – | 95.5 | – | – | 92.8 | 97.8
[12] | – | 98.8 | – | – | 112 | 113

Conditions | drug sensitivity score
[13] | 0
[14] | 0
[15] | 0
[16] | 0
[17] | 0
[18] | 0
[19] | 0
[20] | 0
[21] | 0
[22] | 0
[23] | 0
[24] | 0

CCCCCOC(=O)Nc1nc(=O)n([C@@H]2O[C@H](C)[C@@H](O)[C@H]2O)cc1F [Capecitabine]
Conditions | normalised viability
[1], 10 nM | 124% and 104%
[1], 1000 nM | 120% and 108%
[1], 10000 nM | 124% and 105%
[2], 10 nM | 91.7% and 86.6%
[2], 1000 nM | 96% and 104%
[3], 10 nM | 82.6% and 98.9%
[3], 1000 nM | 83.9% and 100%
[3], 10000 nM | 91.1% and 96.5%
[4], 3 nM | 113% and 108%
[4], 30 nM | 105% and 98.2%
[4], 100 nM | 103%
[5], 10 nM | 77.9% and 97.9%
[5], 1000 nM | 89.9% and 103%
[5], 10000 nM | 84.2% and 91.9%
[6], 10 nM | 99.6% and 100%
[6], 10000 nM | 96.4% and 111%
[7], 10 nM | 80.9% and 86%
[7], 1000 nM | 88% and 75.8%
[7], 10000 nM | 87.6% and 85.8%
[8], 10 nM | 94.2% and 74.2%
[8], 1000 nM | 108% and 87%
[8], 10000 nM | 110% and 97.4%
[9], 3 nM | 110% and 101%
[9], 30 nM | 95.9% and 104%
[9], 100 nM | 97% and 94%
[10], 10 nM | 106% and 131%
[10], 1000 nM | 108% and 104%
[10], 10000 nM | 104%
[11], 10 nM | 83.5% and 100%
[11], 1000 nM | 93.6% and 100%
[11], 10000 nM | 90.6% and 99.6%
[12], 10 nM | 107% and 86.8%
[12], 1000 nM | 108% and 93.6%
[12], 10000 nM | 78.4% and 85.5%

Conditions | drug sensitivity score
[13] | 0
[14] | 0
[15] | 0
[16] | 0
[17] | 0
[18] | 0
[19] | 0
[20] | 0
[21] | 0
[23] | 0

CC(C)C[C@H](NC(=O)[C@H](CCc1ccccc1)NC(=O)CN1CCOCC1)C(=O)N[C@@H](Cc1ccccc1)C(=O)N[C@@H](CC(C)C)C(=O)[C@@]1(C)CO1 [Carfilzomib]
normalised viability [%]
Conditions | 0.3 nM | 1 nM | 3 nM | 10 nM | 100 nM | 1000 nM
[1] | – | 107 | – | – | 21.8 | 13.9
[2] | – | 90 | – | – | 6.79 | 5.9
[3] | – | 100 | – | – | 4.54 | 2.9
[4] | 111 | – | 102 | 81.4 | – | –
[5] | – | 91.9 | – | – | 23.9 | 14.9
[6] | – | 106 | – | – | 64.6 | 38.9
[7] | – | 74 | – | – | 5.98 | 11
[8] | – | 105 | – | – | 2.47 | 7.05
[9] | 115 | – | 38.5 | 17.7 | – | –
[10] | – | 117 | – | – | 3.17 | 2.35
[11] | – | 83.4 | – | – | 13 | 14.4
[12] | – | 97.8 | – | – | 16.7 | 12.6

Conditions | drug sensitivity score
[13] | 16.1
[14] | 29.2
[15] | 19.6
[16] | 22.8
[17] | 20.4
[18] | 7.66
[19] | 23.7
[20] | 27.6
[21] | 25.5
[22] | 27.8
[23] | 26.8
[24] | 23.7
